System: embryonic chick myocardial cells
Assay type: cell-based

SMILES	PSD ratio (PSD after agent ÷ PSD before agent), modulation function of the action potential	PSD modulation function of the action potential (additional data, concentration not given)
NC1=N[C@H](O)[C@H]2[C@H]3O[C@]4(O)O[C@@H]([C@@H](O)[C@@]2(N1)[C@@H]4O)[C@]3(O)CO [Tetrodotoxin]	low pass filter effect that clearly reduced the high frequency components of the AP	–
CNC[C@H](O)c1ccc(O)c(O)c1 [Epinephrine]	enhanced the power of the AP across a 2 kHz bandwidth with a slight bandpass effect observed	–
CC[N+](CC)(CC)CC(=O)Nc1c(C)cccc1C.[Br-] [QX-314]	–	modulation function similar to that of TTX, but with additional attenuation at lower frequencies

Reference: patent US6377057B1, “Classification of biological agents according to the spectral density signature of evoked changes in cellular electric potential” (priority 1999, dated 2002)
